Laboratory results: patent US20230150978A1, “QUINAZOLINONE DERIVATIVES AND USES THEREOF FOR TREATING A CANCER” (ENYO PHARMA, priority 2020, published 2023)

Tests used:
Calreticulin = Calreticulin release (ER to plasma membrane translocation) screen, Nano-Glo HiBiT extracellular detection; format: cell-based; details: Homo sapiens, MDA-MB-231, MDA-MB-231 cells stably expressing Calreticulin-HiBiT; extracellular luminescence; read-out: CalR EC50
Description: (§1) Construction of pBiT3.1-Calreticulin Plasmid Calreticulin derived from pCMV6-AC plasmid (ref. SC320287, Origene) was amplified by PCR using the following set of primers: Seq ID No 3: forward, 5′-[…]-3′; Seq ID No 4: reverse, 5′-[…]-3′. The PCR fragment was subsequently digested by EcoRI and XhoI (R3101S and R0146S respectively, New England Biolabs) and inserted between the EcoRI and XhoI sites in the plasmid pBiT3.1-C(ref. N237A, Promega). The resulting plasmid (pBiT3.1-Calreticulin) was grown in NEB10-beta competent E. coli (ref. C3019I, New England Biolabs) and purified using the NucleoBond Xtra Midi Kit (ref. 740410, Macherey-Nagel).
Construction of Calreticulin Reporter Cell Line
(§2) pBiT3.1-Calreticulin was transfected in MDA-MB-231 cells (ref. ATCC HTB-2) using Lipofectamine 2000 reagent (ref. 11668, Invitrogen). Transfected cells were selected for blasticidin resistance (15 μg/ml, ref. Al 113903 Gibco) in medium containing DMEM 1× (ref. 1995065, Gibco) with 1% penicillin and streptomycin, and 10% fetal bovine serum.
Screen for Calreticulin-ER to Plasma Membrane Translocating Drugs
(§3) MDA-MB-231 cells stably expressing Calreticulin-HiBiT (10^4 cells/well) were seeded into white 96-well plates (ref.3917, Corning) and allowed to recover for 24h. […] Mitoxantrone dihydrochloride (ref. M6545, Sigma-Aldrich) was used as a positive control. Extracellular translocation of Calreticulin was measured using the Nano-Glo HiBiT extracellular detection system (ref. N2422, Promega). Nano-Glo HiBiT Extracellular Reagent was prepared in advance, added to the well and incubated 10 min.
Luminescence of the extracellular Calreticulin-HiBiT was quantified using the Spark 20M spectrofluorimeter (TECAN).

HMGB1 = HMGB1 release screen, Nano-Glo HiBiT extracellular detection; format: cell-based; details: Homo sapiens, MDA-MB-231, MDA-MB-231 cells stably expressing HMGB1-HiBiT; extracellular luminescence
Description: Construction of pBiT3.1-HMGB1 Plasmid
as §1, with “HMGB1” for “Construction of pBiT3.1-Calreticulin Plasmid Calreticulin”, “pCMV6-AC-GFP” for “pCMV6-AC”, “RG205918,” for “SC320287,”, “1:” for “3:”, “2:” for “4:”, “(pBiT3.1-HMGB1)” for “(pBiT3.1-Calreticulin)”
Construction of HMGB1 Reporter Cell Line
as §2, with “pBiT3.1-HMGB1” for “pBiT3.1-Calreticulin”
Screen for HMGB1-Releasing Drugs
as §3, with “HMGB1-HiBiT” for “Calreticulin-HiBiT”, “HMGB1” for “Calreticulin”, “min. Luminescence of the extracellular HMGB1-HiBiT was quantified using the Spark 20M spectrofluorimeter (TECAN)” for “min.”

| Compound | EC50 (Calreticulin) [nM] | EC50 (HMGB1) [nM] | melting point [°C] |
| --- | --- | --- | --- |
| COc1cc2c(=O)[nH]c(CN3CC(C)(C)c4ccccc43)nc2cc1F [Ex. #77, 2-[(3,3-dimethylindolin-1-yl)methyl]-7-fluoro-6-methoxy-3H-quinazolin-4-one] | 150 | 150 | 194 to 209 |
| O=c1[nH]c(CN2CCc3ccccc32)nc2ccc(F)cc12 [Ex. #88, 6-fluoro-2-(indolin-1-ylmethyl)-3H-quinazolin-4-one] | 7560 | 4660 | 184 to 196 |
| COc1cc2c(=O)[nH]c(CN3CCc4ccccc43)nc2cn1 [Ex. #78, 2-(indolin-1-ylmethyl)-6-methoxy-3H-pyrido[3,4-d]pyrimidin-4-one] | 2450 | 3250 | 215 to 230 |
| COc1cccc2c1CCN(Cc1nc3ccc(Cl)cc3c(=O)[nH]1)C2 [Ex. #58, 6-chloro-2-[(5-methoxy-3,4-dihydro-1H-isoquinolin-2-yl)methyl]-3H-quinazolin-4-one] | 524 | 4810 | 205 to 212 |
| COc1ccc2nc(CN3CC(C(C)C)c4ccccc43)[nH]c(=O)c2c1 (stereo not shown) [Ex. #6, 2-[(3-isopropylindolin-1-yl)methyl]-6-methoxy-3H-quinazolin-4-one] | 254 | 217 | 192 to 208 |
| COc1ccc2nc(CN3CCc4cccc(F)c43)[nH]c(=O)c2c1 [Ex. #8, 2-[(7-fluoroindolin-1-yl)methyl]-6-methoxy-3H-quinazolin-4-one] | 5660 | 8360 | 208 to 227 |
| COc1ccc2nc(CN3CC(C)c4ccccc43)[nH]c(=O)c2c1 (stereo not shown) [Ex. #3, 6-methoxy-2-[(3-methylindolin-1-yl)methyl]-3H-quinazolin-4-one] | 191 | 263 | 192 to 213 |
| COc1ccc2nc(CN3CCc4c(cccc4OC)C3)[nH]c(=O)c2c1 [Ex. #17, 6-methoxy-2-[(5-methoxy-3,4-dihydro-1H-isoquinolin-2-yl)methyl]-3H-quinazolin-4-one] | 540 | 6060 | 204 to 218 |
| COCCCOc1ccc2nc(CN3CC(C)(C)c4ccccc43)[nH]c(=O)c2c1 [Ex. #96, 2-[(3,3-dimethylindolin-1-yl)methyl]-6-(3-methoxypropoxy)-3H-quinazolin-4-one] | 9860 | 10600 | 155 to 165 |
| COc1ccc2nc(CN3CCc4c(N)cccc4C3)[nH]c(=O)c2c1 [Ex. #133, 2-[(5-amino-3,4-dihydro-1H-isoquinolin-2-yl)methyl]-6-methoxy-3H-quinazolin-4-one] | 8160 | 14000 | 211 to 233 |
| CN(C)c1cc2c(=O)[nH]c(CN3CCc4ccccc43)nc2cc1F [Ex. #80, 6-(dimethylamino)-7-fluoro-2-(indolin-1-ylmethyl)-3H-quinazolin-4-one] | 220 | 225 | 200 to 223 |
| COc1ccc2nc(CN3CCCCc4ccccc43)[nH]c(=O)c2c1 [Ex. 22, 6-methoxy-2-(2,3,4,5-tetrahydro-1-benzazepin-1-ylmethyl)-3H-quinazolin-4-one] | 339 | 429 | 191 to 206 |
| COc1cc2c(=O)[nH]c(CN3CC(C)(C)c4ccccc43)nc2cn1 [Ex. #79, 2-[(3,3-dimethylindolin-1-yl)methyl]-6-methoxy-3H-pyrido[3,4-d]pyrimidin-4-one] | 796 | 801 | 145 to 167 |
| CC(C)c1ccc2nc(CN3CCc4ccccc43)[nH]c(=O)c2c1 [Ex. #81, 2-(indolin-1-ylmethyl)-6-isopropyl-3H-quinazolin-4-one] | 80 | 410 | 168 to 185 |
| CC1(C)CN(Cc2nc3ccc(Cl)cc3c(=O)[nH]2)c2ccccc21 [Ex. #40, 6-chloro-2-[(3,3-dimethylindolin-1-yl)methyl]-3H-quinazolin-4-one] | 941 | 1260 | 163 to 176 |
| CC1(C)CN(Cc2nc3ccc(C#N)cc3c(=O)[nH]2)c2ccccc21 [Ex. #95, 2-[(3,3-dimethylindolin-1-yl)methyl]-4-oxo-3H-quinazoline-6-carbonitrile] | 9960 | 11500 | 187 to 197 |
| COc1ccc2nc(CN3CCc4c(C#N)cccc4C3)[nH]c(=O)c2c1 [Ex. #16, 2-[(6-methoxy-4-oxo-3H-quinazolin-2-yl)methyl]-3,4-dihydro-1H-isoquinoline-5-carbonitrile] | 490 | 2660 | 197 to 218 |
| COc1ccc2nc(CN3CC(CO)c4ccccc43)[nH]c(=O)c2c1 (stereo not shown) [Ex. #9, 2-[[3-(hydroxymethyl)indolin-1-yl]methyl]-6-methoxy-3H-quinazolin-4-one] | 12800 | 11700 | 190 to 209 |
| CN(C)c1cc2c(=O)[nH]c(CN3CC(C)(C)c4ccccc43)nc2cn1 [Ex. #92, 6-(dimethylamino)-2-[(3,3-dimethylindolin-1-yl)methyl]-3H-pyrido[3,4-d]pyrimidin-4-one] | 98.8 | 140 | 194 to 211 |
| COc1ccc2nc(CN3CCc4c(F)cccc43)[nH]c(=O)c2c1 [Ex. #126, 2-[(4-fluoroindolin-1-yl)methyl]-6-methoxy-3H-quinazolin-4-one] | 8060 | – | 222 to 232 |
| COc1ccc2nc(CN3CCc4cccc(OC)c4C3)[nH]c(=O)c2c1 [Ex. #19, 6-methoxy-2-[(8-methoxy-3,4-dihydro-1H-isoquinolin-2-yl)methyl]-3H-quinazolin-4-one] | 7360 | 10200 | – |
| CN(C)c1ccc2nc(CN3CC(C)(C)c4ccccc43)[nH]c(=O)c2c1 [Ex. #74, 6-(dimethylamino)-2-[(3,3-dimethylindolin-1-yl)methyl]-3H-quinazolin-4-one] | 200 | 210 | – |
| COc1cc(OC)c2nc(CN3CC(C)(C)c4ccccc43)[nH]c(=O)c2c1 [Ex. #94, 2-[(3,3-dimethylindolin-1-yl)methyl]-6,8-dimethoxy-3H-quinazolin-4-one] | 3060 | 5760 | – |
| COc1ccc2nc(CN3CCCN(C)c4ccccc43)[nH]c(=O)c2c1 [Ex. 23, 6-methoxy-2-[(1-methyl-3,4-dihydro-2H-1,5-benzodiazepin-5-yl)methyl]-3H-quinazolin-4-one] | 1960 | 2000 | – |
| O=c1[nH]c(CN2CCc3ccccc32)nc2ccc(Cl)cc12 [Ex. #36, 6-chloro-2-(indolin-1-ylmethyl)-3H-quinazolin-4-one] | 1800 | 1010 | – |
| COCCOc1ccc2nc(CN3CC(C)(C)c4ccccc43)[nH]c(=O)c2c1 [Ex. #97, 2-[(3,3-dimethylindolin-1-yl)methyl]-6-(2-methoxyethoxy)-3H-quinazolin-4-one] | 7360 | 7560 | – |
| Cc1ccc2c(c1)CN(Cc1nc3ccc(Cl)cc3c(=O)[nH]1)CC2 [Ex. #60, 6-chloro-2-[(7-methyl-3,4-dihydro-1H-isoquinolin-2-yl)methyl]-3H-quinazolin-4-one] | 870 | 9360 | – |
